Patent publication US7468443B2, “Alkyl ether derivatives or salts thereof” (Toyama Chemical Co., Ltd., priority 2001, dated 2008)
Counter-ions that a name gives are not always drawn.

Key:
[1] = test system: sciatic nerve; assay: Activity to accelerate nerve regeneration (cut sciatic nerve, silicone tube model); assay type: in vivo, SD strain rats; conditions: 1 mg/kg orally once a day from the seventh day; measured 21 days after cutting the nerve; regeneration distance relative to control group x100
Procedure: [Activity to Accelerate Nerve Regeneration]
The test was carried out according to the method described in J. Pharmaco. Exp. Ther., Vol. 290, page 348 (1999) and Neuroscience, vol. 88, page 257 (1999).
SD strain rats (male, aged 6 to 7 weeks, and weighing 170 to 280 g) were anesthetized with pentobarbital, and the left sciatic nerve of each rat was exposed in the femoral region, separated from the surrounding connective tissue, and then cut at a distal position which was about 1 cm apart from the gluteus. The ends of the nerve were inserted into a sterilized silicone tube with a length of 8 mm (inside diameter 1.3 mm, and outside diameter 1.8 mm) to a depth of 3.5 mm so that a space of 1 mm might be formed in the middle of the tube. The ends of the nerve were fixed and the nerve was put back to the muscular tissue together with the tube, after which the incised part was sutured. On the seventh day, each test compound dissolved in distilled water was orally administered in a dose of 1 mg/kg, and thereafter the test compound was administered once a day for 13 days in the same manner as above.
Twenty-one days after cutting the nerve, the sciatic nerve was exposed again under pentobarbital anesthesia, and the nerve in the femoral region and the crural region was separated from the surrounding connective tissues, after which the silicone tube at the cut part was removed. A stimulation electrode was set on the proximal side with respect to the cut position, and a recording electrode was set at the most distal position in the crural region. An electric stimulus (voltage: 2 V, delay: 1 msec, and duration: 100 μsec) was given, and an action potential induced by the stimulus was recorded. The recording electrode was gradually moved toward the proximal, and the distance between the cut position and the most distal position at which an action potential had been obtained was measured as regeneration distance. Only distilled water was administered to a control group.
The sciatic nerve regeneration rate of the test compound was calculated according to the following expression: (regeneration distance of drug-treated group)/(regeneration distance of control group)×100 (%)

[2] = test system: cultured neurons from cerebral cortices; assay: Activity to inhibit the neuronal death induced by Aβ (MTT assay); assay type: cell-based, Wistar strain rats; conditions: concentration of 1 μM; Aβ (25 to 35 residues) 20 μmol/L
Procedure: [Activity to Inhibit the Neuronal Death Induced by Aβ]
Inhibitory effect on the death of cultured neurons induced by Aβ was investigated by modifying the method described in Brain Res., vol. 639, page 240 (1994).
Cerebral cortices isolated from the brains of embryos (aged 17 to 19 days) of Wistar strain rats were sliced, and then neurons were dissociated by trypsin treatment. The cells were seeded into a 48-well tissue culture plate at a density of 1×10^5 cells per well and cultured under conditions of 5% CO2 and 37° C. on Dulbecco's modified Eagle's medium added B27 supplement (available from GIBCO BRL) and 3.6 mg/mL glucose.
On the 12th to 13th day of the culture, a potassium chloride solution was added to the medium to adjust the final concentration of potassium chloride to 25 mmol/L. Immediately after this addition, each test compound was added to the medium. After 24 hours, Aβ (a peptides comprising 25 to 35 residues) dissolved in distilled water was added to the medium at a final concentration of 20 μmol/L. After another 24 hours, the medium was replaced with Dulbecco's modified Eagle's medium added B27 supplement and 3.6 mg/mL glucose and test compound.
The inhibitory activity of the test compound against the death of cultured neurons was determined by inhibition against the decrease of reducing ability of MMT. That is, MTT assay [J. Immuno. Methods, vol. […] Inhibition rate=[(MTT assay value of a group treated with Aβ and the drug)−(MTT assay value of a group treated with Aβ)]/[MTT assay value of an untreated group−MTT assay value of a group treated with Aβ]×100 (%).

[3] = Metabolism in human liver microsomes; assay type: in vitro ADME; conditions: incubation at 37° C. for 60 minutes, pooled human liver microsomes, NADPH generating system
Procedure: [Metabolism in Human Liver Microsomes]
In a test tube were placed 50 μL of 100 mmol/L potassium phosphate buffer (pH 7.4) and 25 μL of 3 mg protein/mL pooled human liver microsomes (available from Gentest Inc.), and a solution prepared by blending 10 μL of 66 mmol/L sodium glucose 6-phosphate, 10 μL of 10 units/mL glucose 6-phosphate dehydrogenase, 10 μL of 26 mmol/L nicotinamide adenine dinucleotide phosphate oxidized form, 10 μL of 66 mmol/L magnesium chloride and 135 μL of 100 mmol/L potassium phosphate buffer (pH 7.4) was added thereto, followed by preincubation for 5 minutes. Thereto was added 50 μL of each test compound to a concentration of 6 μmol/L to initiate the reaction, and incubation was carried out at 37° C. for 60 minutes (final volume: 300 μL). The reaction was terminated by the addition of 600 μL of acetonitrile, followed by centrifugation at 12000×g and at 4° C. for 15 minutes. The supernatant was separated, concentrated by centrifugation under reduced pressure, and then subjected to high performance liquid chromatography, and the amount of the residual test compound after the metabolic reaction was determined.
The residual rate was calculated by the following equation: Residual rate (%)=[(peak area due to the test compound after 60 minutes of the reaction)/(peak area due to the test compound in the case of stopping the reaction by adding acetonitrile simultaneously with the addition of the test compound after the preincubation)]×100

[4] = test system: PC12 cells; assay: Activity to accelerate neurite outgrowth (NGF-treated PC12 cells); assay type: cell-based, rat; conditions: test compound 10 μM with 2.5s-NGF 40 ng/mL, 48 hours; neutrite outgrowth rate due to NGF taken as 100%
Procedure: [Activity to Accelerate Neurite Outgrowth]
PC12 cells [rat adrenomedullary chromaffinoma (NGF responders)] were cultured in an incubator (5% CO2, 37° C.) by using RPMI1640 medium (available from Nissui Pharmaceutical Co., Ltd.) containing 5% heat inactivated (56° C., 30 minutes) horse serum (available from Bio-Whittaker Inc.), 5% heat inactivated (56° C., 30 minutes) fetal calf serum (available from Sigma Chemical Co.) and 25 μg/ml gentamicin (available from GIBCO BRL).
The cultured PC12 cells were incubated at 37° C. for 30 minutes in phosphate-buffered physiological saline containing 1 mM EDTA, to be detached from a culture flask. The concentration of the cultured PC12 cells was adjusted to 5×10^4 cells/mL with RPMI1640 medium containing 1.5% heat inactivated horse serum, 1.5% heat inactivated fetal calf serum and 25 μg/ml gentamicin, and the resulting cell suspension was dispensed in 2 ml portions into 35-mm tissue culture dishes (mfd. by Falcon Inc.) coated with 0.01% polyornithine [dissolved in 150 mM borate buffer (pH 8.4)]. Then, 2.5s-NGF (available from Wako Pure Chemical Industries, Ltd.) [dissolved in phosphate-buffered physiological saline containing 0.1% bovine serum albumin] and each test compound were added to the medium at the same time so as to adjust their final concentrations to 40 ng/mL and 10 μM, respectively, followed by culturing under conditions of 5% CO2 and 37° C. After 48 hours of the culturing, cells were fixed in a 10% neutral formalin solution for 30 minutes, washed with phosphate-buffered physiological saline and distilled water, and then dried. […] The percentage of the number of cells having an neutrite extended to a length longer than the diameter of the cell body relative to the total number of cells observed (neutrite outgrowth rate) was calculated.
The activity to accelerate neutrite outgrowth was calculated according to the following expression as a neutrite outgrowth acceleration rate attained by the addition of each test compound, by taking a neutrite outgrowth rate due to NGF as 100%: (neutrite outgrowth rate attained by addition of each test compound)/(neutrite outgrowth rate due to NGF)×100 (%)

melting point	SMILES	sciatic nerve regeneration rate [1]	inhibition rate against decrease of MTT assay value induced by Aβ [2]	residual rate [3]	neutrite outgrowth acceleration rate [4]
–	OC1CN(CCCOCCc2ccc3ccsc3c2)C1 [Example 4, 1-{3-[2-(1-benzothiophen-6-yl)ethoxy]propyl}-3-azetidinol hydrochloride]	167%	63%	80%	–
–	OC1CN(CCCOCCc2cc3ccccc3s2)C1 [Example 6, 1-{3-[2-(1-benzothiophen-2-yl)ethoxy]propyl}-3-azetidinol hydrochloride]	–	48%	–	300%
–	OC1CN(CCCOCCc2ccc3sccc3c2)C1 [Example 81, 1-{3-[2-(1-benzothiophen-5-yl)ethoxy]propyl}-3-azetidinol 1/2 fumarate]	–	–	–	190%
–	CN(C)C1CCN(CCCOCCc2ccc3sccc3c2)C1 (stereo not shown) [Example 80, 1-{3-[2-(1-benzothiophen-5-yl)ethoxy]propyl}-N,N-dimethyl-3-pyrrolidinamine dihydrochloride]	–	75%	–	190%
–	NC1CCN(CCCOCCc2ccc3sccc3c2)C1 (stereo not shown) [Example 74, 1-{3-[2-(1-benzothiophen-5-yl)ethoxy]propyl}-3-pyrrolidinamine oxalate]	–	50%	71%	246%
–	O[C@H]1CCN(CCOCCc2ccc3sccc3c2)C1 [Example 31, (3S)-1-{2-[2-(1-benzothiophen-5-yl)ethoxy]ethyl}-3-pyrrolidinol oxalate]	155%	50%	–	–
–	COc1cc2ccoc2cc1CCOCCN1CCC(O)C1 (stereo not shown) [Example 51, 1-{2-[2-(5-methoxy-1-benzofuran-6-yl)ethoxy]ethyl}-3-pyrrolidinol oxalate]	–	–	–	216%
–	O[C@@H]1CCN(CCOCCc2ccc3sccc3c2)C1 [Example 33, (3R)-1-{2-[2-(1-benzothiophen-5-yl)ethoxy]ethyl}-3-pyrrolidinol oxalate]	161%	54%	–	–
–	OC1CN(CCCOCCc2ccc3sccc3c2)C1 [Example 10, 1-{3-[2-(1-benzothiophen-5-yl)ethoxy]propyl}-3-azetidinol hydrochloride]	186%	42%	70%	–
–	OC1CN(CCCOCCc2cccc3sccc23)C1 [Example 12, 1-{3-[2-(1-benzothiophen-4-yl)ethoxy]propyl}-3-azetidinol hydrochloride]	142%	–	83%	299%
–	OC1CCN(CCCOCCc2ccc3sccc3c2)C1 (stereo not shown) [Example 59, 1-{3-[2-(1-benzothiophen-5-yl)ethoxy]propyl}-3-pyrrolidinol hydrochloride]	–	–	–	241%
–	O[C@@H]1CN(CCOCCc2ccc3sccc3c2)C[C@@H]1O [Example 71, (3R, 4S)-1-{2-[2-(1-benzothiophen-5-yl)ethoxy]ethyl}-3,4-pyrrolidinediol hydrochloride]	–	–	80%	183%
101 to 102 °C	OC1CN(CCOCCc2ccc3sccc3c2)C1 (as salt: hydrochloride) [Example 2, 1-{2-[2-(1-benzothiophen-5-yl)ethoxy]ethyl}-3-azetidinol hydrochloride]	–	–	–	–
–	OC1CN(CCOCCc2ccc3sccc3c2)C1 [Example 2, 1-{2-[2-(1-benzothiophen-5-yl)ethoxy]ethyl}-3-azetidinol hydrochloride]	–	–	–	265%
–	OC1CCN(CCCOCCc2ccc3occc3c2)C1 (stereo not shown) [Example 61, 1-{3-[2-(1-benzofuran-5-yl)ethoxy]propyl}-3-pyrrolidinol hydrochloride]	–	52%	74%	–
–	OC1CN(CCCOCCc2csc3ccccc23)C1 [Example 14, 1-{3-[2-(1-benzothiophen-3-yl)ethoxy]propyl}-3-azetidinol hydrochloride]	150%	48%	75%	207%
–	OC1CCN(CCOCCc2ccc3ccccc3c2)C1 (stereo not shown) [Example 69, 1-{2-[2-(2-naphthyl)ethoxy]ethyl}-3-pyrrolidinol oxalate]	–	70%	74%	233%
–	OC1CCN(CCOCCc2cccc3ccccc23)C1 (stereo not shown) [Example 29, 1-{2-[2-(1-naphthyl)ethoxy]-ethyl}-3-pyrrolidinol oxalate]	–	–	–	212%
